{
  "source": "patent US9918991B2",
  "about": "“Topical antimicrobial compositions and methods of using same” (Hydromer, Inc., priority 2010, dated 2018)",
  "key": {"fungi": {"system": "fungi", "test": "Fungi growth inhibition on the hoof (Test Method MCR 3.0 with actual hoof material)", "format": "cell-based", "details": "aqueous solution 0.25 to 0.5%", "text": "(§1) Comparative Antimicrobial Testing of Example 4 with Cosmetic Dyes According to Test Method MCR 3.0 with Actual Hoof Material"}, "bacteria [1]": {"system": "bacteria", "test": "Bacteria growth inhibition on the hoof (Test Method MCR 3.0 with actual hoof material)", "format": "cell-based", "details": "aqueous solution 0.25 to 0.5%", "text": "as §1"}, "T. mentagrophytes": {"system": "T. mentagrophytes", "test": "Hoof samples submerged, washed to simulate leaching, overlaid with T. mentagrophytes agar", "format": "cell-based", "details": "10 wt. % solution; hoof submerged 15 seconds, washed two hours, 3 and 6 days", "protocol": "(§2) Hoof samples were submerged for 15 seconds in (1) the composition of the invention (i.e., 4:1 of cosmetic dye:Phenoxyethanol, total amount about 0.3 wt. %); (2.1) a 10 wt. % copper sulfate (2.2) a 10 wt. % zinc sulfate solution; (3) untreated as a control. The samples were then washed for two hours to simulate leaching. The samples were then placed into melted PA agar to solidify. Melted agar containing 10E5 CFU/ml of T. mentagrophytes was then added and incubated at room temperature for 3 and 6 days.\nas §2, with “antimicrobial” for “cosmetic”, “about 0.21 wt. % or” for “about”, “(2)” for “(2.1)”, “or” for “(2.2) a”, “solution; or” for “solution;”"}, "[2]": {"system": "Arcanobacterium pyogenes (ATCC#9731 and ATCC#19411)", "test": "MIC Test against Arcanobacterium pyogenes under anaerobic conditions (TOXIKON)", "format": "cell-based", "protocol": "MIC Test of example 4 against Arcanobacterium pyogenes (ATCC#9731 and ATCC#19411) under anaerobic conditions were conducted by the TOXIKON.\nUnder the same conditions as mentioned in Example 5 conducted by TOXIKON the MIC of a 10% copper sulfate solution (commonly used in hoof baths worldwide) was determined."}, "[3]": {"test": "Influence of hoof bath contamination by dirt and manure on effectiveness"}, "[4]": {"system": "digital dermatitis lesion (DDL)", "test": "Footbath study in a large commercial dairy farm, digital dermatitis lesions", "format": "in vivo, cows", "details": "study 1; 5% solution, twice weekly; mixed logistic regression", "description": "The study was conducted in a large commercial dairy farm. […] The adjusted odds of digital dermatitis lesion (DDL) throughout the study period were analyzed by mixed logistic regression model."}, "bacteria [5]": {"system": "bacteria", "test": "Growth / inhibition activity on a hoof surface", "format": "cell-based", "details": "0.2% alone"}},
  "data": [
    {"molecule": "CN(C)c1ccc(C(=C2C=CC(=[N+](C)C)C=C2)c2ccc(N(C)C)cc2)cc1.[Cl-]", "note": "[Gentian Violet, N-[4[Bis[4-(dimethylamino)-phenyl]methylene]-2,5-cyclohexadien-1-ylidene]-N-methyl-methanaminium chloride]", "values": [
      {"measurement": "fungi growth inhibition on the hoof", "setting": "fungi", "result": 80, "unit": "%"},
      {"measurement": "bacteria growth inhibition on the hoof", "setting": "bacteria [1]", "result": 90, "unit": "%"}
    ]},
    {"molecule": "O=S(=O)([O-])[O-].[Cu+2]", "note": "[copper sulfate]", "values": [
      {"measurement": "microbial growth", "setting": "T. mentagrophytes", "result": "intense microbial growth"},
      {"measurement": "MIC (concentration giving about 100% reduction / kill)", "setting": "[2]; anaerobic conditions, both strains", "result": "at least 0.078%"},
      {"measurement": "kill rate", "setting": "[2]; concentration at least 0.078%, both strains", "result": "~100", "unit": "%"},
      {"measurement": "required concentration in comparison to a solution according to example 4", "setting": "[2]; to control Arcanobacterium pyogenes", "result": "at least 8 times"},
      {"measurement": "loses effectiveness after contamination", "setting": "[3]; at 2.5% and 5% concentrations, FIG. 1", "result": "≤ 4", "unit": "h"}
    ]},
    {"molecule": "O=S(=O)([O-])[O-].[Zn+2]", "note": "[zinc sulfate]", "values": [
      {"measurement": "microbial growth", "setting": "T. mentagrophytes", "result": "intense microbial growth"}
    ]},
    {"molecule": "O=CCCCC=O", "note": "[glutaraldehyde]", "values": [
      {"measurement": "loses effectiveness after contamination", "setting": "[3]; at 2% concentration, FIG. 3", "result": "≤ 24", "unit": "h"}
    ]},
    {"molecule": "CN(C)c1ccc2nc3ccc(=[N+](C)C)cc-3sc2c1", "note": "[Methylene Blue]", "values": [
      {"measurement": "fungi growth inhibition on the hoof", "setting": "fungi", "result": 50, "unit": "%"},
      {"measurement": "bacteria growth inhibition on the hoof", "setting": "bacteria [1]", "result": 60, "unit": "%"}
    ]},
    {"molecule": "C=O", "note": "[formalin]", "values": [
      {"measurement": "odds of DDL compared with the Dragonhyde group", "setting": "[4]", "result": 1.36, "unit": "times higher"}
    ]},
    {"molecule": "Cc1cc2nc3ccc(N(C)C)cc3[s+]c2cc1N.[Cl-]", "note": "[Toluidine Blue]", "values": [
      {"measurement": "fungi growth inhibition on the hoof", "setting": "fungi", "result": 50, "unit": "%"},
      {"measurement": "growth on a hoof surface", "setting": "bacteria [5]", "result": "bacterial growth"},
      {"measurement": "bacteria growth inhibition on the hoof", "setting": "bacteria [1]", "result": 80, "unit": "%"}
    ]},
    {"molecule": "benzalkonium chloride", "values": [
      {"measurement": "loses effectiveness after contamination", "setting": "[3]; at 1% concentration, FIG. 4", "result": "≤ 24", "unit": "h"}
    ]}
  ]
}
